One series has as its target T1, human A2B receptor (Homo sapiens, UniProt P29275).
T1 construct: expressed in transfected cells; host or cells: HEK293
T1 sequence (P29275 1-332): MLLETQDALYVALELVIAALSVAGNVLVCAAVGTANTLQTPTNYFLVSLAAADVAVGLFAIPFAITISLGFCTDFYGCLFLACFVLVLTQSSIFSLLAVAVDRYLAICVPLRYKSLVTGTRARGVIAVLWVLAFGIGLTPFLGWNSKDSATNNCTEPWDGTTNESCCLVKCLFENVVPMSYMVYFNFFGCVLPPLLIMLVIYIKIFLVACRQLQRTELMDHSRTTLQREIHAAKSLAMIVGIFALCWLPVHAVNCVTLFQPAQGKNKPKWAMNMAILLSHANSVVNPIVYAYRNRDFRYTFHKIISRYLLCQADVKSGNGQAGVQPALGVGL
Kind of series: Functional A2B receptor activity, recombinant HEK293 cells, cAMP (HTRF), agonist NECA. The settings on record: read-out: Functional A2B receptor activity, HEK293, cAMP, IC50. The class given is cell-based. Put shortly: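 Forskolin, test compounds and agonist were added together to the cells and incubated for 30 min. Cellular cAMP was then quantified by HTRF. Raw signals were normalized to an inhibitor control and a neutral DMSO control, and the normalized data were curve-fitted.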

Series [1] is described as follows: Pharmacokinetic properties in mouse after single intravenous and oral administration. The class given is in vivo. The method, then: The objective of the study was to obtain information on the pharmacokinetic properties of the compounds of the present invention in female Wistar rats/mice following single intravenous and oral administration.
Female Wistar rats/mice (n=6) received either a single intravenous (bolus) injection or an oral administration (by gavage) of the tested compound. Doses of 0.2 and 10 mg/kg (per compound) were given intravenously and per os, respectively, as a solution in DMSO (0.2%)/PEG 200 (40%)/water for iv administration and as a suspension in Methocel (0.5%)/Tween 20 (0.25%) in water for oral dosing. Consecutive blood samples were taken sub-lingually under isoflurane inhalation from 3 animals per route of administration after 0.1 (only iv), 0.25 (only po), 0.5, 1, 2, 4, 6 and 24 h and were further processed to obtain plasma. Also, urine and feces samples of 3 rats per route of administration were collected over the time interval from 0-24 h and were pooled for analysis.
The concentrations of the compounds in plasma, feces were quantified using an UPLC method with tandem mass spectrometric detection (LC-MS/MS) previously developed at the ‘Institute of Drug Metabolism and Pharmacokinetics’. The LCMS/MS system consisted of a Waters Acquity UPLC coupled to an AB Sciex mass spectrometer API 5500 Q-trap. The UPLC separation was carried out on a reversed phase column (HSS T3, […], 2.1×50 mm) using a mobile phase gradient with 0.1% formic acid and acetonitrile as eluents. The detection of the compounds was performed using multiple reaction monitoring in the positive ionization mode. Plasma samples were spiked with internal standard (20 μl) and the analyte was extracted from the matrix using tertiary-butyl methyl ether (tBME). The organic phase was evaporated to dryness under a stream of nitrogen. The residue was dissolved in acetonitrile/0.1% formic acid for LC-MS/MS analysis. Feces samples were homogenized with 4-times their volume of an ethanol/water mixture (4:1, v/v). Aliquots of the aqueous-ethanolic extracts were spiked with internal standard, diluted with acetonitrile/water (1:1, v/v) and directly injected into the LC-MS/MS system.
Pharmacokinetic parameters Cmax and tmax were taken from the observed data. […] AUC values were calculated by non-compartmental analysis using the linear up/log down method. Numerical data for mean plasma concentrations and derived pharmacokinetic parameters were rounded to 3 significant digits for presentation.

For the next series, the system named is mouse Pan T cells. Kind of series: mTcell assay, cAMP, agonist NECA. The format is cell-based. Conditions: mouse Pan T cells, agonist NECA 1 uM. Put shortly: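 Mouse splenic Pan T cells, pre-activated 48 hours with anti-CD3/CD28 beads, then plated at 50,000 cells/well in serum-free medium with 0.1% BSA. Compounds tested in 10-point dose response from 10 uM; after 30 minutes at 37° C, cAMP measured by HTRF.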

Another series concerns the target human A2A receptor (Homo sapiens, UniProt P29274). Description: Human T cells, endogenous A2A receptor, cAMP, agonist NECA. The settings on record: read-out: hTcell data, cAMP, IC50. The format is cell-based. Put shortly:
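Pan T cells isolated from fresh human blood PBMC, endogenously expressing Gs-coupled A2A, treated with compounds. Cellular cAMP measured by HTRF after 1 h; data normalized to inhibitor control and DMSO neutral control, then curve-fitted.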

The record followed here is US12344623B2, “Thiazolopyridine derivatives as adenosine receptor antagonists” (Merck Patent GmbH, priority 2019, dated 2025).

Bounds are passed on as bounds.

Chain of human A2A receptor (P29274 whole entry): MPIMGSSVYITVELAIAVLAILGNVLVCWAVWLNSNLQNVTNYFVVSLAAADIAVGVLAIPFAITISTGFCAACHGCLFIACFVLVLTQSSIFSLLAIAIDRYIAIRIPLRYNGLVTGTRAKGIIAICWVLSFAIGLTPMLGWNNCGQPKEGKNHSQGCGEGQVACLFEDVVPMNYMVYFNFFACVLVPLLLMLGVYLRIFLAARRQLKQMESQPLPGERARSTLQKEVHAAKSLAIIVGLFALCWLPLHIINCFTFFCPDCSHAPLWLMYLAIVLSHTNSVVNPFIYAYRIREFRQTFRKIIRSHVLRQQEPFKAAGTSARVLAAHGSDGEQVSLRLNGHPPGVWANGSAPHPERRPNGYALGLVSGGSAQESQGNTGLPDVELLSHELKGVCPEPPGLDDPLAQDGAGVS

For the molecule `COc1ncc(C2=CCOCC2)c2sc(NC(=O)N3CC[C@@]4(CCCOC4)C3)nc12` [Compound 25, (S)-7-Oxa-2-aza-spiro[4.5]decane-2-carboxylic acid [7-(3,6-dihydro-2H-pyran-4-yl)-4-methoxy-thiazolo[4,5-c]pyridin-2-yl]-amide], the IC50 on human A2B receptor, with mouse Pan T cells and at human A2A receptor was < 10 nM in each case. The Feces iv in series [1] (@0.2 (mg/kg), % of dose excreted in feces) is 22@0.2%. The same molecule had a clearance in series [1] (female, plasma, 0.2 mg/kg) of 77.5 mL/min/kg. Further, the Cmax (in general, the maximum level reached in the sampled fluid or tissue) in series [1] (female, plasma, 0.2 mg/kg, dose-normalized to 1 mg/kg) came out at 500 ng/mL. Moreover, the Vd in series [1] (female, plasma, 0.2 mg/kg, read-out: Vss) was 3.16 L/kg. In addition, the half-life in series [1] (female, plasma, 0.2 mg/kg, read-out: t½ (converted)) is 54.6 min.
